Reference: publication PMC5218480 (PLoS ONE, 2017)

Tested on: MV-4-11 cells
Test: Gene expression microarray analysis (Affymetrix PrimeView) and GSEA
Type: cell-based, human
Parameters: RFU PODN (11730768_x_at) / Fold change /veh PODN (11730768_x_at) / RFU LINC00158 (11744669_a_at) / Fold change /veh LINC00158 (11744669_a_at) / RFU DUSP10 (11751237_a_at) / Fold change /veh DUSP10 (11751237_a_at) / RFU ID3 (11757404_x_at) / Fold change /veh ID3 (11757404_x_at) / RFU PLEKHG5 (11737974_s_at) / Fold change /veh PLEKHG5 (11737974_s_at) / RFU LRRC4B (11730491_at) / Fold change /veh LRRC4B (11730491_at) / RFU GIMAP4 (11747438_a_at) / Fold change /veh GIMAP4 (11747438_a_at) / RFU KRT8 (11758183_x_at) / Fold change /veh KRT8 (11758183_x_at) / RFU CNN1 (11734310_a_at) / Fold change /veh CNN1 (11734310_a_at) / RFU VPS37D (11726825_at) / Fold change /veh VPS37D (11726825_at) / RFU C10orf10 (11716522_x_at) / Fold change /veh C10orf10 (11716522_x_at) / RFU KIR2DL2 /// KIR2DL4 /// KIR2DL5A /// KIR2DL5B /// KIR2DS1 /// KIR2DS2 /// KIR2DS3 /// KIR2DS4 /// KIR3DL3 /// KIR3DL3 /// KIR3DS1 (11738374_at) / Fold change /veh KIR2DL2 /// KIR2DL4 /// KIR2DL5A /// KIR2DL5B /// KIR2DS1 /// KIR2DS2 /// KIR2DS3 /// KIR2DS4 /// KIR3DL3 /// KIR3DL3 /// KIR3DS1 (11738374_at) / RFU C1QL1 (11718748_at) / Fold change /veh C1QL1 (11718748_at) / RFU TMPRSS4 (11747572_a_at) / Fold change /veh TMPRSS4 (11747572_a_at) / RFU HAMP (11756126_x_at) / Fold change /veh HAMP (11756126_x_at) / RFU RNFT2 (11725882_a_at) / Fold change /veh RNFT2 (11725882_a_at) / RFU NR4A2 (11747474_a_at) / Fold change /veh NR4A2 (11747474_a_at) / RFU ABCC12 (11746883_a_at) / Fold change /veh ABCC12 (11746883_a_at) / RFU TMEM136 (11760407_x_at) / Fold change /veh TMEM136 (11760407_x_at) / RFU CLDN22 /// WWC2 (11732394_at) / Fold change /veh CLDN22 /// WWC2 (11732394_at) / RFU HLA-DPB1 (11760878_x_at) / Fold change /veh HLA-DPB1 (11760878_x_at) / RFU SPINT1 (11716480_a_at) / Fold change /veh SPINT1 (11716480_a_at) / RFU GAP43 (11754022_s_at) / Fold change /veh GAP43 (11754022_s_at) / RFU A4GNT (11735810_at) / Fold change /veh A4GNT (11735810_at) / RFU PRB3 (11715151_x_at) / Fold change /veh PRB3 (11715151_x_at) / RFU TUBB4B (11761932_at) / Fold change /veh TUBB4B (11761932_at) / RFU CAPN14 (11732068_a_at) / Fold change /veh CAPN14 (11732068_a_at) / RFU TMCC2 (11721928_a_at) / Fold change /veh TMCC2 (11721928_a_at) / RFU IRGQ (11745062_a_at) / Fold change /veh IRGQ (11745062_a_at) / RFU FAM174B (11720279_a_at) / Fold change /veh FAM174B (11720279_a_at) / RFU TMPRSS4 (11748680_a_at) / Fold change /veh TMPRSS4 (11748680_a_at) / RFU FAM212B (11763350_a_at) / Fold change /veh FAM212B (11763350_a_at) / RFU PLEKHG5 (11743358_a_at) / Fold change /veh PLEKHG5 (11743358_a_at) / RFU ZSCAN30 (11745921_a_at) / Fold change /veh ZSCAN30 (11745921_a_at) / RFU CMKLR1 (11741424_a_at) / Fold change /veh CMKLR1 (11741424_a_at) / RFU LOC101060620 /// MAPK8IP1 (11723275_at) / Fold change /veh LOC101060620 /// MAPK8IP1 (11723275_at) / RFU SPTSSB (11747773_x_at) / Fold change /veh SPTSSB (11747773_x_at) / RFU PRSS12 (11739890_at) / Fold change /veh PRSS12 (11739890_at) / RFU BIN1 (11741810_x_at) / Fold change /veh BIN1 (11741810_x_at) / RFU WNT11 (11732464_a_at) / Fold change /veh WNT11 (11732464_a_at) / RFU C10orf10 (11716521_a_at) / Fold change /veh C10orf10 (11716521_a_at) / RFU C5orf56 (11738089_at) / Fold change /veh C5orf56 (11738089_at) / RFU CYB561 (11721691_x_at) / Fold change /veh CYB561 (11721691_x_at) / RFU ANKRD19P (11752326_a_at) / Fold change /veh ANKRD19P (11752326_a_at) / RFU OR2T12 /// OR2T33 /// OR2T8 (11738714_s_at) / Fold change /veh OR2T12 /// OR2T33 /// OR2T8 (11738714_s_at) / RFU VCAN (11748164_a_at) / Fold change /veh VCAN (11748164_a_at) / RFU JSRP1 (11732532_at) / Fold change /veh JSRP1 (11732532_at) / RFU KRTAP10-11 (11738290_x_at) / Fold change /veh KRTAP10-11 (11738290_x_at) / RFU MYO3A (11730013_a_at) / Fold change /veh MYO3A (11730013_a_at) / RFU EBF3 (11725865_a_at) / Fold change /veh EBF3 (11725865_a_at) / RFU CAMK2N1 (11719241_x_at) / Fold change /veh CAMK2N1 (11719241_x_at) / RFU C5orf56 (11738088_a_at) / Fold change /veh C5orf56 (11738088_a_at) / RFU OLFML3 (11715873_a_at) / Fold change /veh OLFML3 (11715873_a_at) / RFU LOC100653217 /// NTM (11731650_a_at) / Fold change /veh LOC100653217 /// NTM (11731650_a_at) / RFU MAPK11 (11762145_a_at) / Fold change /veh MAPK11 (11762145_a_at) / RFU FIZ1 (11724087_x_at) / Fold change /veh FIZ1 (11724087_x_at) / RFU OASL (11726364_x_at) / Fold change /veh OASL (11726364_x_at) / RFU SOX15 (11748057_x_at) / Fold change /veh SOX15 (11748057_x_at) / RFU CD79A (11719716_a_at) / Fold change /veh CD79A (11719716_a_at) / RFU HIST1H1D (11736915_at) / Fold change /veh HIST1H1D (11736915_at) / RFU CASKIN2 (11723855_a_at) / Fold change /veh CASKIN2 (11723855_a_at) / RFU LOC730098 (11760151_x_at) / Fold change /veh LOC730098 (11760151_x_at) / RFU OR4N2 (11742367_at) / Fold change /veh OR4N2 (11742367_at) / RFU PRRT2 (11749266_a_at) / Fold change /veh PRRT2 (11749266_a_at) / RFU SNX32 (11753110_a_at) / Fold change /veh SNX32 (11753110_a_at) / RFU CDHR5 (11726645_a_at) / Fold change /veh CDHR5 (11726645_a_at) / RFU RCAN1 (11760418_a_at) / Fold change /veh RCAN1 (11760418_a_at) / RFU FAM167A (11723789_a_at) / Fold change /veh FAM167A (11723789_a_at) / RFU FAM26E (11764081_at) / Fold change /veh FAM26E (11764081_at) / RFU ISYNA1 (11749810_s_at) / Fold change /veh ISYNA1 (11749810_s_at) / RFU ACY1 (11761880_at) / Fold change /veh ACY1 (11761880_at) / RFU 11764098_at / Fold change /veh 11764098_at / RFU SAMD14 (11745864_x_at) / Fold change /veh SAMD14 (11745864_x_at) / RFU NPB (11741838_a_at) / Fold change /veh NPB (11741838_a_at) / RFU TMPRSS6 (11731388_a_at) / Fold change /veh TMPRSS6 (11731388_a_at) / RFU KRTAP10-2 (11738614_at) / Fold change /veh KRTAP10-2 (11738614_at) / RFU ARHGAP8 /// PRR5-ARHGAP8 (11727945_x_at) / Fold change /veh ARHGAP8 /// PRR5-ARHGAP8 (11727945_x_at) / RFU KRTAP5-7 /// NADSYN1 (11734609_at) / Fold change /veh KRTAP5-7 /// NADSYN1 (11734609_at) / RFU RASL12 (11751679_a_at) / Fold change /veh RASL12 (11751679_a_at) / RFU CDKN2B (11736163_a_at) / Fold change /veh CDKN2B (11736163_a_at) / RFU PRF1 (11729649_at) / Fold change /veh PRF1 (11729649_at) / RFU, ZNF638 /// ZNF638-IT1 / Fold change vs veh, ZNF638 /// ZNF638-IT1 / RFU, PANK3 / Fold change vs veh, PANK3 / RFU, SH3YL1 / Fold change vs veh, SH3YL1 / RFU, ZEB2 / Fold change vs veh, ZEB2 / RFU, NRIP1 / Fold change vs veh, NRIP1 / RFU, PTTG1IP / Fold change vs veh, PTTG1IP / RFU, CAPN2 / Fold change vs veh, CAPN2 / RFU, MED14 / Fold change vs veh, MED14 / RFU, SNORA58 / Fold change vs veh, SNORA58 / RFU, C1orf63 / Fold change vs veh, C1orf63 / RFU, LRRFIP1 / Fold change vs veh, LRRFIP1 / RFU, NDUFAF7 / Fold change vs veh, NDUFAF7 / RFU, SLC12A2 / Fold change vs veh, SLC12A2 / RFU, IBTK / Fold change vs veh, IBTK / RFU, ESF1 / Fold change vs veh, ESF1 / Fold change vs veh, TMEM50B / RFU, TAOK1 / Fold change vs veh, TAOK1 / RFU, ACBD3 / Fold change vs veh, ACBD3 / RFU, TMA16 / Fold change vs veh, TMA16 / RFU, RWDD3 / Fold change vs veh, RWDD3 / RFU, BCAT1 / Fold change vs veh, BCAT1 / RFU, EDEM3 / Fold change vs veh, EDEM3 / RFU, TMEM33 / Fold change vs veh, TMEM33 / RFU, WDR75 / Fold change vs veh, WDR75 / RFU, AHCTF1 / Fold change vs veh, AHCTF1 / RFU, TFRC / Fold change vs veh, TFRC / RFU, ZDHHC17 / Fold change vs veh, ZDHHC17 / RFU, NOM1 / Fold change vs veh, NOM1 / RFU, ARL8B / Fold change vs veh, ARL8B / RFU, ZBTB11 / Fold change vs veh, ZBTB11 / RFU, TAMM41 / Fold change vs veh, TAMM41 / RFU, KIAA1704 /// LOC100996395 / Fold change vs veh, KIAA1704 /// LOC100996395 / RFU, ING1 / Fold change vs veh, ING1 / RFU, TRMT61B / Fold change vs veh, TRMT61B / RFU, FUBP3 / Fold change vs veh, FUBP3 / RFU, TP53 / Fold change vs veh, TP53 / RFU, TNKS2 / Fold change vs veh, TNKS2 / RFU, ZFP14 / Fold change vs veh, ZFP14 / RFU, ACTR2 / Fold change vs veh, ACTR2 / RFU, PPP3R1 / Fold change vs veh, PPP3R1 / RFU, PIK3R1 / Fold change vs veh, PIK3R1 / RFU, HNRNPA1 / Fold change vs veh, HNRNPA1 / RFU, RNF170 / Fold change vs veh, RNF170 / RFU, ZNF28 / Fold change vs veh, ZNF28 / RFU, RNGTT / Fold change vs veh, RNGTT / RFU, OGT / Fold change vs veh, OGT / RFU, BRD1 / Fold change vs veh, BRD1 / RFU, MARS / Fold change vs veh, MARS / RFU, ZNF655 / Fold change vs veh, ZNF655 / RFU, FAHD1 / Fold change vs veh, FAHD1 / RFU, BDP1 / Fold change vs veh, BDP1 / RFU, LRRCC1 / Fold change vs veh, LRRCC1 / RFU, ARID1A / Fold change vs veh, ARID1A / RFU, ZNF146 / Fold change vs veh, ZNF146 / RFU, ZNF330 / Fold change vs veh, ZNF330 / RFU, GPN3 / Fold change vs veh, GPN3 / RFU, C9orf123 / Fold change vs veh, C9orf123 / RFU, N4BP2L2 / Fold change vs veh, N4BP2L2 / RFU, ARFIP1 / Fold change vs veh, ARFIP1 / RFU, FAM179B / Fold change vs veh, FAM179B / RFU, BCL10 / Fold change vs veh, BCL10 / RFU, UHRF1BP1L / Fold change vs veh, UHRF1BP1L / RFU, BET1 / Fold change vs veh, BET1 / RFU, CNOT2 / Fold change vs veh, CNOT2 / RFU, ZNF268 / Fold change vs veh, ZNF268 / Fold change vs veh, ZNF507 / RFU, DGCR2 / Fold change vs veh, DGCR2 / RFU, WDSUB1 / Fold change vs veh, WDSUB1 / Fold change vs veh, HSP90B1 /// MIR3652 / RFU, ADSS / Fold change vs veh, ADSS / RFU, GK / Fold change vs veh, GK / RFU, ZNF148 / Fold change vs veh, ZNF148 / RFU, TAF9 / Fold change vs veh, TAF9 / RFU, SLC1A5 / Fold change vs veh, SLC1A5 / RFU, SLMO2 / Fold change vs veh, SLMO2 / RFU, ABCC4 / Fold change vs veh, ABCC4 / RFU, LOC101060439 /// RAP1B / Fold change vs veh, LOC101060439 /// RAP1B / RFU, RFX7 / Fold change vs veh, RFX7 / RFU, GTPBP10 / Fold change vs veh, GTPBP10 / RFU, CNEP1R1 / Fold change vs veh, CNEP1R1 / RFU, BIVM-ERCC5 /// ERCC5 / Fold change vs veh, BIVM-ERCC5 /// ERCC5 / RFU, ILF3 / Fold change vs veh, ILF3 / RFU 11762660_at / Fold change /veh 11762660_at / RFU VCAN (11757783_s_at) / Fold change /veh VCAN (11757783_s_at) / RFU DDX43 (11728927_at) / Fold change /veh DDX43 (11728927_at) / RFU KRT8 (11758188_x_at) / Fold change /veh KRT8 (11758188_x_at) / RFU NKD1 (11759106_at) / Fold change /veh NKD1 (11759106_at) / RFU SRD5A1 (11742802_a_at) / Fold change /veh SRD5A1 (11742802_a_at) / RFU TPSAB1 /// TPSB2 (11721975_s_at) / Fold change /veh TPSAB1 /// TPSB2 (11721975_s_at) / RFU GSTM3 (11746129_a_at) / Fold change /veh GSTM3 (11746129_a_at) / RFU IL23R (11737362_x_at) / Fold change /veh IL23R (11737362_x_at) / RFU TMEM51 (11727254_a_at) / Fold change /veh TMEM51 (11727254_a_at) / RFU PIWIL2 (11732686_x_at) / Fold change /veh PIWIL2 (11732686_x_at) / RFU ORM1 (11744905_x_at) / Fold change /veh ORM1 (11744905_x_at) / RFU CCDC152 (11743942_at) / Fold change /veh CCDC152 (11743942_at) / RFU ECM1 (11717891_a_at) / Fold change /veh ECM1 (11717891_a_at) / RFU IL23R (11748794_a_at) / Fold change /veh IL23R (11748794_a_at) / RFU TNFAIP8L3 (11732012_x_at) / Fold change /veh TNFAIP8L3 (11732012_x_at) / RFU MBOAT4 (11741988_at) / Fold change /veh MBOAT4 (11741988_at) / RFU 11764193_at / Fold change /veh 11764193_at / RFU TMEM53 (11763286_at) / Fold change /veh TMEM53 (11763286_at) / RFU MAGEB2 (11727129_at) / Fold change /veh MAGEB2 (11727129_at) / RFU TMEM200A (11744735_a_at) / Fold change /veh TMEM200A (11744735_a_at) / RFU CCDC152 (11751479_a_at) / Fold change /veh CCDC152 (11751479_a_at) / RFU FAM211A (11726209_a_at) / Fold change /veh FAM211A (11726209_a_at) / RFU RGS16 (11746705_a_at) / Fold change /veh RGS16 (11746705_a_at) / RFU VCAN (11755009_s_at) / Fold change /veh VCAN (11755009_s_at) / RFU RHOB (11743442_s_at) / Fold change /veh RHOB (11743442_s_at) / RFU RGS16 (11720943_a_at) / Fold change /veh RGS16 (11720943_a_at) / RFU RGS16 (11720944_at) / Fold change /veh RGS16 (11720944_at) / RFU, VPS4B / Fold change vs veh, VPS4B / RFU, CREB1 / Fold change vs veh, CREB1 / RFU, DNAJC13 / Fold change vs veh, DNAJC13 / RFU, GNAQ / Fold change vs veh, GNAQ / RFU, CDK5R1 / Fold change vs veh, CDK5R1 / RFU, ZRANB3 / Fold change vs veh, ZRANB3 / RFU, CUL4A / Fold change vs veh, CUL4A / RFU, CCNY / Fold change vs veh, CCNY / RFU, UFL1 / Fold change vs veh, UFL1 / RFU, COG3 / Fold change vs veh, COG3 / RFU, DIAPH2 / Fold change vs veh, DIAPH2 / RFU, SKA2 / Fold change vs veh, SKA2 / RFU, AFF3 / Fold change vs veh, AFF3 / RFU, LMF1 / Fold change vs veh, LMF1 / RFU, IPO11 / Fold change vs veh, IPO11 / RFU, DFFB / Fold change vs veh, DFFB / RFU, FOXP1 / Fold change vs veh, FOXP1 / RFU, CARD8 / Fold change vs veh, CARD8 / RFU, STRN3 / Fold change vs veh, STRN3 / RFU, ADK / Fold change vs veh, ADK / RFU, RASSF2 / Fold change vs veh, RASSF2 / RFU, WIPF1 / Fold change vs veh, WIPF1 / RFU, LARP1B / Fold change vs veh, LARP1B / RFU, RASA1 / Fold change vs veh, RASA1 / RFU, RB1 / Fold change vs veh, RB1 / RFU, PPFIA1 / Fold change vs veh, PPFIA1 / RFU, MAT2A / Fold change vs veh, MAT2A / RFU, CCT5 / Fold change vs veh, CCT5 / RFU, WDR92 / Fold change vs veh, WDR92 / RFU, CUX1 / Fold change vs veh, CUX1 / RFU, TTC7A / Fold change vs veh, TTC7A / RFU, TMEM135 / Fold change vs veh, TMEM135 / RFU, DEPTOR / Fold change vs veh, DEPTOR / RFU, CPM / Fold change vs veh, CPM / RFU, DNAJB6 / Fold change vs veh, DNAJB6 / RFU, CACNA2D3 / Fold change vs veh, CACNA2D3 / RFU, DTX4 / Fold change vs veh, DTX4 / RFU, TFCP2 / Fold change vs veh, TFCP2 / RFU, GMCL1 /// GMCL1P1 / Fold change vs veh, GMCL1 /// GMCL1P1 / RFU, AEBP2 / Fold change vs veh, AEBP2 / RFU, SNHG1 /// SNORD22 /// SNORD25 /// SNORD26 /// SNORD27 /// SNORD28 /// SNORD29 /// SNORD31 / Fold change vs veh, SNHG1 /// SNORD22 /// SNORD25 /// SNORD26 /// SNORD27 /// SNORD28 /// SNORD29 /// SNORD31 / Fold change (Aza/veh), C12orf56 (ProbeSet 11735607_a_at) / Fold change (ACY-1035/veh), C12orf56 (ProbeSet 11735607_a_at) / Fold change (Aza/veh), FGFR1OP (ProbeSet 11751329_s_at) / Fold change (ACY-1035/veh), FGFR1OP (ProbeSet 11751329_s_at) / Fold change (Aza/veh), VPS36 (ProbeSet 11739960_a_at) / Fold change (ACY-1035/veh), VPS36 (ProbeSet 11739960_a_at) / RFU SYPL1 (11715823_x_at) / Fold change /veh SYPL1 (11715823_x_at) / RFU IGFBP7 (11715501_s_at) / Fold change /veh IGFBP7 (11715501_s_at) / RFU REEP3 (11722064_at) / Fold change /veh REEP3 (11722064_at) / RFU IGLL1 (11728026_x_at) / Fold change /veh IGLL1 (11728026_x_at): dose or concentration left out as unconfirmed
Conditions: ProbeSet 11732277_a_at; LIST D

Nc1ncn([C@@H]2O[C@H](CO)[C@@H](O)[C@H]2O)c(=O)n1 [azacitidine]
Fold change vs veh, FOXP1: 0.59
